Results as given in patent US5719296A, “Pseudopeptide lactam inhibitors of peptide binding to MHC class II proteins” (Merck & Co., Inc., priority 1996, dated 1998).
Where two headings read alike, the source gives them in different places.

Biological target: T1, DR1Dw1 (Homo sapiens, UniProt P01903+P01911, A100R/D57E/F55L/F60I/F76Y/I96L/L162R/M171V/P40L/Q125E/R42F/V115G/Y59C)
T1 construct: these are Drosophila transmembrane DR; made in house; host or cells: Drosophila (cells)
Assay: Inhibition assay: inhibition of biotinylated RMBP 90-102 peptide binding to MHC class II DR1
Protocol: For direct binding assays, optimal concentrations of affinity purified DR1Dwl (1.25 nM) or DR4Dw4 (10 nM) are incubated with serial dilutions of biotinylated rat myelin basic protein (RMBP) 90-102 in PBS (phosphate buffered saline) containing 0.75% octyl glucoside, pH 6.5, in 96-well polypropylene plates for 16 to 20 h at 37° C. In studies optimizing the assay it was determined that only between 5 to 10% of the DR molecules are capable of binding added peptide. Therefore, the effective concentration of DR1Dw1 and DR4Dw4 was approximately 0.125 and 1.0 nM, respectively. […] The DR-peptide complexes (50 μL) are transferred to wells of a 96-well EIA plate precoated with LB3.1, the monoclonal antibody which recognizes the DR alleles of MHC Class II, and blocked with PBS with fetal calf serum (FCS). An additional 50 μL of 50 mM Tris, pH 7.0, containing 0.75% octyl glucoside is added to each well and the mixture incubated overnight at 4° C. Excess peptide is removed by washing with PBS containing 0.05% Tween 20 (Polyoxyethylene sorbitan monolaurate) and 0.01% NAN3. Europium-labeled streptavidin (Wallac Inc.) is added and incubated overnight. After washing, complexes are measured by the addition of Enhance™ buffer, the tradename for 0.1 M acetate phthalate buffer, pH 3.2, containing 0.1% Triton X-100, tradename for polyoxyethylene ethers and other surface active compounds of Union Carbide Chemicals and Plastics Co., Inc. (particularly, a non-ionic surfactant for recovery of membrane components under non-denaturing conditions) 15 µM 2-naphthoyltrifluoroacetone, and 50 μM tri-N-octylphosphine oxide, which buffer releases the chelated europium from streptavidin and forms a highly fluorescent micellar solution. The resultant fluorescence is measured using a fluorescent plate reader (e.g., DELPHIA, Wallac, Inc.). The data are analyzed using a four-parameter logistical curve […] program (e.g., SigmaPlot) that calculates the concentration of biotinylated peptide giving a half-maximal signal (ED50).
The inhibition assay format is identical to the procedure described above with the exception that the unlabeled antagonist is serially diluted and incubated with constant concentrations of biotinylated RMBP 90-102 (0.3 nM for DR1Dw1 or 0.9 nM for DR4Dw4) and the MHC class II proteins. The concentration of unlabeled compound that prevents 50% of the labeled peptide from binding is the IC50 value. The concentration of the biotinylated RMBP 90-102 in each assay is experimentally determined to be […] one-sixth of its measured ED50 to assure the inhibition was primarily measuring the binding characteristics of the competitor.
In particular, a protocol for carrying out the inhibition assay is given below.
Preparation of Antibody Plate
Add 115 μL of 5 μg/mL LB3.1 in 50 mM Tris HCl pH 9.6/azide to each well of a Costar EIA plate. Incubate the plate overnight at 4° C.
Wash the plate 4 times with water/0.05% Tween-20/azide. Add 200 μL of PBS/5% FCS/azide for 1 hour at 4° C. to block the plate. The plate may be held at this point for later use or used immediately.
Flip out the block. It is not necessary to wash the plate. At 50 μL of load buffer (50 mM Tris HCl, pH 8.0 0.75% octylglucoside). Add to this volume 50 μL of the reaction mix from day 2, step 3 below.
Preparation of Reaction Mixture
(1) Add the following to a polypropylene round bottom 96-well plate such as a Costar #3794:
(A) Diluent (Ca Mg free PBS adjusted to pH 6.5 with 0.1 M KH2 PO4/0.75% octylglucoside/azide).81 μL
(B) Competitor at 16.6 times the final concentration in diluent or diluent alone. 9 μL
(C) Biotinylated RMBP (BRMBP) 90-102; 1.5 nM for DR1 or 4.5 nM for DR4 (These are 5 × stocks of final concentrations of 0.3 nM/DR1 or 0.9 nM/DR4)
(D) 6.25 nM DR1Dw1 or 50 nM DR4Dw4 (these are Drosophila transmembrane DR) (This is a 5× stock of the final concentration of 1.25 or 10 nM.) 30 μL Add the DR last and mix well at this time 150 μL
(2) Incubate at 37° C. for 20 min and 5 hours. […]

[1] = 20 min incubation at 37° C., 0.3 nM biotinylated RMBP 90-102, 1.25 nM DR1Dw1, pH 6.5, read-out: IC50 /μM @ 20'
[2] = 5 hours incubation at 37° C., 0.3 nM biotinylated RMBP 90-102, 1.25 nM DR1Dw1, pH 6.5, read-out: IC50 /μM @ 5 h

Row | Substance | IC50 [1] | IC50 [2]
1 | cHp(CH2)3 -α-Propyl-(R)-γ-Lactam-Nva-Leu-NH2 [Example 32] | 0.15 µM | 1.4 µM
2 | cHx(CH23 -α-(3-Azidopropyl)-(R)-γ-Lactam-Nva-NHNBu(COOEt) [Example 52] | 0.16 µM | 0.62 µM
3 | cHx(CH2)3 -α-(3-guanidinopropyl)-(R)-γ-Lactam-Nva-NHNBu(COOEt) [Example 54] | 0.21 µM | 0.93 µM
4 | cHx(CH2)3 -α-(3-Hydroxypropyl)-(R)-γ-Lactam-Nva-NHNBu(COOEt) [Example 51] | 0.16 µM | 0.63 µM
5 | EtOCO-Phe-(S)-δ-Lactam-L-Nva-Leu-NH2 [27(61)] | 3.4 µM | 10 µM
6 | cHx(CH2)3 -α-(3-Hydroxypropyl)-(R)-γ-Lactam-Nva-Leu-NH2 [Example 33] | 0.13 µM | 0.86 µM
7 | cHx((CH3)C=CHCH2)-(R)-γ-Lactam-Nva-Leu-NH2 [Example 11] | 0.76 µM | 5.2 µM
8 | cHp(CH2)3 -(R)-γ-Lactam-Nva-Leu-NH2 [Example 14] | 0.34 µM | 2.9 µM
9 | cHx(CH2)3 -α-propyl-(R)-γ-Lactam-Nva-NHNBu(COOEt) [Example 35] | 0.25 µM | 2 µM
10 | cHx(CH2)3 -α-(3-Aminopropyl)-(R)-γ-Lactam-Nva-NHNBu(COOEt) [Example 53] | 0.68 µM | 3.1 µM
11 | EtOCO-Phe-(S)-γ-Lactam-Nva-Leu-NH2 [Example 21] | 3.1 µM | 10.5 µM
12 | [4H]-Naphthyl-CH2 -(R)-γ-Lactam-Nva-Leu-NH2 [Example 50] | 2.5 µM | 23.5 µM
13 | cHx((CH3)CHCH2 CH2 NH)-(R)-γ-Lactam-Nva-Leu-NH2 [Example 12] | 0.65 µM | 5.6 µM
